34 compounds from patent US9096565B2, “Inhibitors of histone deacetylase” (MethylGene Inc., priority 2007, dated 2015) can be followed below.

Where only a bound is given, the exact number is not on record here.

This experiment has as its target one or more of HDAC-4, HDAC-5, HDAC-6, HDAC-7, HDAC-8, HDAC-9, HDAC-10 and HDAC-11. Nature of the experiment: Inhibition of histone deacetylase enzymatic activity (summary statement over isoforms). As to conditions: Table 3, selected examples; HDAC isoform not given. It is filed as biochemical. The method, boiled down: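 Activity was measured as deacetylation of the fluorogenic substrate Boc-Lys(trifluoroacetyl)-AMC over 20-30 min at 37 °C, after a 5 min room-temperature preincubation of enzyme with compound. Trypsin (1 mg/mL) with a reference HDAC inhibitor ended the reaction.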
`O=C(NO)C(Sc1ncccn1)c1ccccc1` (stereo not shown) [Compound 6-29, N-hydroxy-2-phenyl-2-(pyrimidin-2-ylthio)acetamide]: the IC50 – broadly, the concentration that inhibits the measured activity by half – lay within 1000 to 15000 nM. For `O=C(NO)C(c1ccccc1)N1CCC(O)(c2ccccc2)CC1` (stereo not shown) [Compound 5-1, N-hydroxy-2-(4-hydroxy-4-phenylpiperidin-1-yl)-2-phenylacetamide] the value was less than 1000 nM; for `CCCCOc1ccc(C(C(=O)NO)c2ccccc2)cc1` (stereo not shown) [Compound 2-10, 2-(4-butoxyphenyl)-N-hydroxy-2-phenylacetamide], 1000 to 15000 nM; for `O=C(NO)C(Oc1ccccc1F)c1ccccc1` (stereo not shown) [Compound 7-5, 2-(2-fluorophenoxy)-N-hydroxy-2-phenylacetamide], 1000 to 15000 nM. To `O=C(NO)C(c1ccccc1)c1ccc(-n2cccn2)cc1` (stereo not shown) [Compound 5-72, 2-(4-(1H-pyrazol-1-yl)phenyl)-N-hydroxy-2-phenylacetamide] belongs less than 1000 nM; to `CN1CCC(Oc2ccc(C(C(=O)NO)c3ccccc3)cc2)CC1` (stereo not shown) [Compound 5-99, N-hydroxy-2-(4-(1-methylpiperidin-4-yloxy)phenyl)-2-phenylacetamide], less than 1000 nM. `CN1CCCC1CCOc1cccc(C(C(=O)NO)c2ccccc2)c1` (stereo not shown) [Compound 3-20, N-hydroxy-2-(3-(2-(1-methylpyrrolidin-2-yl)ethoxy)phenyl)-2-phenylacetamide] showed an IC50 of less than 1000 nM.

Compound `O=C(NO)C(c1ccccc1)c1nnc(-c2ccc3c(c2)OCO3)s1` (stereo not shown) [Compound 5-38, 2-(5-(benzo[d][1,3]dioxol-5-yl)-1,3,4-thiadiazol-2-yl)-N-hydroxy-2-phenylacetamide] yielded an IC50 of less than 1000 nM. To `O=C(NO)C(c1ccccc1)c1ccc(-c2ccc3c(c2)CCO3)cc1` (stereo not shown) [Compound 2-113, 2-(4-(2,3-dihydrobenzofuran-5-yl)phenyl)-N-hydroxy-2-phenylacetamide] belongs less than 1000 nM. `O=C(NO)C(c1ccccc1)c1ccc(-c2ccncc2)cc1` (stereo not shown) [Compound 5-10, N-hydroxy-2-phenyl-2-(4-(pyridin-4-yl)phenyl)acetamide]: the IC50 is less than 1000 nM. Turning to `COc1ccc(OC(C(=O)NO)c2ccccc2)cc1` (stereo not shown) [Compound 7-11, N-hydroxy-2-(4-methoxyphenoxy)-2-phenylacetamide], the IC50 is 1000 to 15000 nM. Turning to `O=C(NO)C(c1ccccc1)c1ccc(-c2ccc(N3CCOCC3)cc2)cc1` (stereo not shown) [Compound 5-34, N-hydroxy-2-(4′-morpholinobiphenyl-4-yl)-2-phenylacetamide], the IC50 was less than 1000 nM.

The compound `O=C(NO)C(c1ccccc1)N1CCN(C(=O)Nc2cccnc2)CC1` (stereo not shown) [Compound 2-34, 4-(2-(hydroxyamino)-2-oxo-1-phenylethyl)-N-(pyridin-3-yl)piperazine-1-carboxamide] returned an IC50 of 1000 to 15000 nM. The compound `CCCS(=O)(=O)Nc1cccc(C(C(=O)NO)c2ccccc2)c1` (stereo not shown) [Compound 2-87, N-hydroxy-2-phenyl-2-(3-(propylsulfonamido)phenyl)acetamide] yielded an IC50 of 1000 to 15000 nM.

With `O=C(NO)C(c1ccccc1)c1nnc(-c2ccc3ccccc3c2)s1` (stereo not shown) [Compound 5-54, N-hydroxy-2-(5-(naphthalen-2-yl)-1,3,4-thiadiazol-2-yl)-2-phenylacetamide], the IC50 is 1000 to 15000 nM.

In turn, `CCCCOc1ccc(C#Cc2ccc(C(C(=O)NO)c3ccccc3)cc2)cc1` (stereo not shown) [Compound 2-99, 2-(4-((4-butoxyphenyl)ethynyl)phenyl)-N-hydroxy-2-phenylacetamide] returned an IC50 of less than 1000 nM. In turn, `CN(C)C(=O)c1ccc(-c2cccc(C(C(=O)NO)c3ccccc3)c2)cc1` (stereo not shown) [Compound 2-109, 3′-(2-(hydroxyamino)-2-oxo-1-phenylethyl)-N,N-dimethylbiphenyl-4-carboxamide] returned an IC50 of less than 1000 nM.

For the compound `O=C(NO)C(c1ccccc1)N1CCC(CCc2ccccc2)CC1` (stereo not shown) [Compound 1-31, N-hydroxy-2-(4-phenethylpiperidin-1-yl)-2-phenylacetamide], the IC50 was less than 1000 nM. Compound `O=C(NO)C(c1ccc(N2CCOCC2)cc1)c1ccsc1` (stereo not shown) [Compound 5-112, N-hydroxy-2-(4-morpholinophenyl)-2-(thiophen-3-yl)acetamide] displayed an IC50 of less than 1000 nM. `COCCOCCOc1ccc(C(C(=O)NO)c2ccccc2)cc1` (stereo not shown) [Compound 3-90, N-hydroxy-2-(4-(2-(2-methoxyethoxy)ethoxy)phenyl)-2-phenylacetamide] came in with an IC50 of less than 1000 nM. Take `O=C(NO)C(c1ccccc1)c1ccc(-c2ncccc2F)cc1` (stereo not shown) [Compound 5-74, 2-(4-(3-fluoropyridin-2-yl)phenyl)-N-hydroxy-2-phenylacetamide]: the IC50 was less than 1000 nM. `O=C(NO)C(c1ccccc1)c1ccc(CCCN2CCS(=O)(=O)CC2)cc1` (stereo not shown) [Compound 5-95] came in with an IC50 of less than 1000 nM. On to `CCN(CC)c1ccc(C(C(=O)NO)c2ccccc2)cc1` (stereo not shown) [Compound 1-19, 2-(4-(diethylamino)phenyl)-N-hydroxy-2-phenylacetamide], for which the IC50 was less than 1000 nM. `O=C(NO)C(c1ccccc1)N1C[C@@H]2C[C@H]1CO2` (stereo partly drawn) [Compound 5-71, 2-((1S,4S)-2-oxa-5-azabicyclo[2.2.1]heptan-5-yl)-N-hydroxy-2-phenylacetamide] registered an IC50 of 1000 to 15000 nM.

In turn, `O=C(NO)C(c1ccccc1)C1CCN(C(=O)c2ccccc2)CC1` (stereo not shown) [Compound 5-127, 2-(1-benzoylpiperidin-4-yl)-N-hydroxy-2-phenylacetamide] displayed a 50% inhibitory concentration (IC50) of 1000 to 15000 nM. Regarding `O=C(NO)C(c1ccccc1)N1CCOCC1` (stereo not shown) [Compound 5-113b, N-hydroxy-2-morpholino-2-phenylacetamide], the IC50 fell in the range of 1000 to 15000 nM.

In the case of `O=C(NO)C(c1ccccc1)N1CCc2[nH]c3ccc(F)cc3c2C1` (stereo not shown) [Compound 5-16, 2-(8-fluoro-3,4-dihydro-1H-pyrido[4,3-b]indol-2(5H)-yl)-N-hydroxy-2-phenylacetamide], the concentration for half-maximal inhibition (IC50) fell in the range of 1000 to 15000 nM. For `CCCC(=O)N1CCCN(C(C(=O)NO)c2ccccc2)CC1` (stereo not shown) [Compound 2-22, 2-(4-butyryl-1,4-diazepan-1-yl)-N-hydroxy-2-phenylacetamide] the value was 1000 to 15000 nM; for `CCC(CC)COc1ccc(C(C(=O)NO)c2ccccc2)cc1` (stereo not shown) [Compound 3-55, 2-(4-(2-ethylbutoxy)phenyl)-N-hydroxy-2-phenylacetamide], less than 1000 nM.

Consider `CN(C)c1ccc(-c2ccc(C(C(=O)NO)c3ccccc3)cc2)cn1` (stereo not shown) [Compound 5-58, 2-(4-(6-(dimethylamino)pyridin-3-yl)phenyl)-N-hydroxy-2-phenylacetamide], for which the IC50 is less than 1000 nM. Turning to `O=C(NO)C(Sc1nc2cccnc2s1)c1ccccc1` (stereo not shown) [Compound 5-46, N-hydroxy-2-phenyl-2-(thiazolo[5,4-b]pyridin-2-ylthio)acetamide], the IC50 was less than 1000 nM. Take `COc1ccc(C2CCN(C(C(=O)NO)c3ccccc3)CC2)cc1` (stereo not shown) [Compound 5-24, N-hydroxy-2-(4-(4-methoxyphenyl)piperidin-1-yl)-2-phenylacetamide]: the IC50 was less than 1000 nM. `Cc1cccc(C(C(=O)NO)c2ccc(N3CCOCC3)cc2)c1` (stereo not shown) [Compound 5-125, N-hydroxy-2-(4-morpholinophenyl)-2-m-tolylacetamide] displayed an IC50 of less than 1000 nM. Consider `O=C(NO)C(c1ccccc1)N1CCC(Cc2ccc(F)cc2)CC1` (stereo not shown) [Compound 1-30, 2-(4-(4-fluorobenzyl)piperidin-1-yl)-N-hydroxy-2-phenylacetamide], for which the IC50 was less than 1000 nM.
